According to patent US9187472B2 (AbbVie Inc., priority 2012, dated 2015):

Tests used:
[1] = molecular target: NAMPT (human, recombinant, C-terminally His-tagged) (Homo sapiens, UniProt P43490); assay: Time-Resolved Fluorescence Resonance Energy Transfer (TR-FRET) Binding Assay of NAMPT; details: without substrates; 6.8 nM NAMPT, 200 nM probe, 3 hours equilibration
Summary of the method: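 Competitive binding against an Oregon Green 488 tracer (200 nM), 6.8 nM His-tagged enzyme, 1 nM Tb antibody, 2% DMSO, 3 h at RT. IC50 derived from TR-FRET ratios.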

[2] = molecular target: NAMPT (Homo sapiens, UniProt P43490); assay: TR-FRET Binding Assay of NAMPT with PRPP; details: with 200 μM PRPP and 2.5 mM ATP; 2 nM NAMPT, 2 nM probe, 16 hours equilibration
NAMPT, sequence (P43490 whole entry): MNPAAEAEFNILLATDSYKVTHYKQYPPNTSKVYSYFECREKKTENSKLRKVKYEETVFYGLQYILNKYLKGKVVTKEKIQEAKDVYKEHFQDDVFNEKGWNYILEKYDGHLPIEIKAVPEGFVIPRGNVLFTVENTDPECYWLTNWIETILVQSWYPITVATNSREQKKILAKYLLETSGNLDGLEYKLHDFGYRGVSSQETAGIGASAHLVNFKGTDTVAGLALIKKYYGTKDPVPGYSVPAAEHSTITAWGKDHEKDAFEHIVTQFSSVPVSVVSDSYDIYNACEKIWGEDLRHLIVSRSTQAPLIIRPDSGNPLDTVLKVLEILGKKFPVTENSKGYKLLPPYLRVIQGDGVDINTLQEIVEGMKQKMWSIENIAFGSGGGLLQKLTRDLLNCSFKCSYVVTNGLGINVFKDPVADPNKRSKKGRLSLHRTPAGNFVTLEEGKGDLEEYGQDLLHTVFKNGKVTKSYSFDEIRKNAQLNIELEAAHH
Summary of the method: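 Read-out is TR-FRET after a 16 h equilibration allowing possible compound modification by the enzyme. Final mix: 2 nM NAMPT, 2 nM probe, 1 nM Tb-anti-His antibody, 200 μM PRPP, 2.5 mM ATP, 2% DMSO.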

[3] = tested on: PC3 cells; assay: NAMPT Cell Proliferation Assay; assay type: cell-based; details: Homo sapiens, PC-3, 120 h, 5 days incubation, cell viability by Cell Titer Glo
Summary of the method: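 Following overnight attachment in RPMI with 10% heat-inactivated FBS, PC3 cells at 500 per well receive compounds spanning 10 μM down to 1×10^−5 μM. Growth is assessed by luminescent viability read after 5 days.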

NAMPT (human, recombinant, C-terminally His-tagged), sequence (P43490 whole entry): as above

CC(C)C(=O)N1CCC(Oc2ccc(NC(=O)NCc3ccn4ccnc4c3)cc2)CC1 [Example 442, 1-(imidazo[1,2-a]pyridin-7-ylmethyl)-3-(4-{[1-(2-methylpropanoyl)piperidin-4-yl]oxy}phenyl)urea]
IC50 [1]: 0.301 µM
IC50 [2]: 0.0002 µM
IC50 [3]: 0.0707 µM

CC(C)S(=O)(=O)N1CCC(c2ccc(C(=O)NCc3ccn4ccnc4c3)cc2)CC1 [Example 683, N-(imidazo[1,2-a]pyridin-7-ylmethyl)-4-[1-(propan-2-ylsulfonyl)piperidin-4-yl]benzamide]
IC50 [1]: 0.154 µM
IC50 [2]: 0.00119 µM
IC50 [3]: 0.0361 µM

O=C(NCc1ccn2ccnc2c1)c1ccc(C2CCN(C(=O)C3COCCO3)CC2)cc1 (stereo not drawn) [Example 233, 4-[1-(1,4-dioxan-2-ylcarbonyl)piperidin-4-yl]-N-(imidazo[1,2-a]pyridin-7-ylmethyl)benzamide]
IC50 [1]: 0.495 µM
IC50 [2]: 0.000401 µM
IC50 [3]: 0.00937 µM

O=C(NCc1ccc2nccn2c1)c1cnc(N2C(=O)OCC2C2CCOC2)s1 (stereo not drawn) [Example 116, N-(imidazo[1,2-a]pyridin-6-ylmethyl)-2-[2-oxo-4-(tetrahydrofuran-3-yl)-1,3-oxazolidin-3-yl]-1,3-thiazole-5-carboxamide]
IC50 [1]: 0.863 µM
IC50 [2]: 0.00069 µM
IC50 [3]: 0.0613 µM

O=C(NCc1ccn2ccnc2c1)c1ccc(O[C@H]2CCN(C(=O)CC3CC3)C2)cc1 [Example 347, 4-{[(3S)-1-(cyclopropylacetyl)pyrrolidin-3-yl]oxy}-N-(imidazo[1,2-a]pyridin-7-ylmethyl)benzamide]
IC50 [1]: 4.73 µM
IC50 [2]: 0.000667 µM
IC50 [3]: 8.08 µM

CC(C)(C)C(=O)N1CCC(c2ccc(C(=O)NCc3ccn4ccnc4c3)s2)C1 (stereo not drawn) [Example 787, 5-[1-(2,2-dimethylpropanoyl)pyrrolidin-3-yl]-N-(imidazo[1,2-a]pyridin-7-ylmethyl)thiophene-2-carboxamide]
IC50 [1]: 0.055 µM
IC50 [2]: 0.000474 µM
IC50 [3]: 0.00675 µM

COCCOCC(=O)N1CC=C(c2ccc(C(=O)NCc3ccc4nccn4c3)cc2)CC1 [Example 103, N-(imidazo[1,2-a]pyridin-6-ylmethyl)-4-{1-[(2-methoxyethoxy)acetyl]-1,2,3,6-tetrahydropyridin-4-yl}benzamide]
IC50 [1]: 0.84 µM
IC50 [2]: 0.00144 µM
IC50 [3]: 0.0621 µM

O=C(NCc1ccn2ccnc2c1)c1ccc(C2CCN(C(=O)c3ccc(Cl)cc3)C2)cc1 (stereo not drawn) [Example 596, 4-[1-(4-chlorobenzoyl)pyrrolidin-3-yl]-N-(imidazo[1,2-a]pyridin-7-ylmethyl)benzamide]
IC50 [1]: 0.691 µM
IC50 [2]: 0.000909 µM
IC50 [3]: 0.257 µM

CC(C)(O)C(=O)N1CCC(Oc2ccc(C(=O)NCc3ccn4ccnc4c3)cc2)CC1 [Example 417, 4-{[1-(2-hydroxy-2-methylpropanoyl)piperidin-4-yl]oxy}-N-(imidazo[1,2-a]pyridin-7-ylmethyl)benzamide]
IC50 [1]: 6.84 µM
IC50 [2]: 0.000264 µM
IC50 [3]: 0.867 µM

O=C(NCc1ccn2ccnc2c1)c1ccc(C2CN(C(=O)c3cccc(OC(F)(F)F)c3)C2)cc1 [Example 669, N-(imidazo[1,2-a]pyridin-7-ylmethyl)-4-{1-[3-(trifluoromethoxy)benzoyl]azetidin-3-yl}benzamide]
IC50 [1]: 0.407 µM
IC50 [2]: 0.000807 µM
IC50 [3]: 0.686 µM

CC(C)CCNC(=O)c1ccc(NC(=O)Nc2ccn3ccnc3c2)cc1 [Example 2, 4-[(imidazo[1,2-a]pyridin-7-ylcarbamoyl)amino]-N-(3-methylbutyl)benzamide]
IC50 [1]: 0.854 µM
IC50 [2]: 0.0398 µM
IC50 [3]: > 10 µM

CC(C)Cn1cc(-c2ccc(C(=O)NCc3ccc4nccn4c3)o2)cn1 [Example 120, N-(imidazo[1,2-a]pyridin-6-ylmethyl)-5-[1-(2-methylpropyl)-1H-pyrazol-4-yl]furan-2-carboxamide]
IC50 [1]: 0.0739 µM
IC50 [2]: 0.000367 µM
IC50 [3]: 0.0908 µM

O=C(NCc1cn2ccnc2cn1)c1ccc(C2CCN(C(=O)c3cc(F)ccc3F)CC2)cc1 [Example 813, 4-[1-(2,5-difluorobenzoyl)piperidin-4-yl]-N-(imidazo[1,2-a]pyrazin-6-ylmethyl)benzamide]
IC50 [1]: 0.0112 µM
IC50 [2]: 0.00153 µM
IC50 [3]: 0.00221 µM

CC(C)C(=O)N1CCC(c2ccc(C(=O)NCc3ccn4ccnc4c3)o2)CC1 [Example 736, N-(imidazo[1,2-a]pyridin-7-ylmethyl)-5-[1-(2-methylpropanoyl)piperidin-4-yl]furan-2-carboxamide]
IC50 [1]: 3.09 µM
IC50 [2]: 0.00073 µM
IC50 [3]: 8.36 µM

CC1(Cn2cc(-c3ccc(C(=O)NCc4ccn5ccnc5c4)s3)cn2)CCOCC1 [Example 576, N-(imidazo[1,2-a]pyridin-7-ylmethyl)-5-{1-[(4-methyltetrahydro-2H-pyran-4-yl)methyl]-1H-pyrazol-4-yl}thiophene-2-carboxamide]
IC50 [1]: 0.016 µM
IC50 [2]: 0.000783 µM
IC50 [3]: 0.000569 µM

CC(=O)N1CCC(Oc2ccc(C(=O)NCc3ccn4ccnc4c3)cc2)CC1 [Example 411, 4-[(1-acetylpiperidin-4-yl)oxy]-N-(imidazo[1,2-a]pyridin-7-ylmethyl)benzamide]
IC50 [1]: 1.87 µM
IC50 [2]: 0.000556 µM
IC50 [3]: 4.72 µM

O=C(NCc1ccn2ccnc2c1)c1ccc(C2CN(C(=O)c3ccc(Cl)cc3)C2)cc1 [Example 645, 4-[1-(4-chlorobenzoyl)azetidin-3-yl]-N-(imidazo[1,2-a]pyridin-7-ylmethyl)benzamide]
IC50 [1]: 0.091 µM
IC50 [2]: 0.000474 µM
IC50 [3]: 0.034 µM

CC(C)C(=O)N1CCC(Oc2ccc(C(=O)NCc3ccc4nccn4c3)cc2)CC1 [Example 159, N-(imidazo[1,2-a]pyridin-6-ylmethyl)-4-{[1-(2-methylpropanoyl)piperidin-4-yl]oxy}benzamide]
IC50 [1]: 2.49 µM
IC50 [2]: 0.00216 µM
IC50 [3]: 0.233 µM

O=C(NCc1ccn2ccnc2c1)c1ccc(C2CN(C(=O)c3cncs3)C2)cc1 [Example 634, N-(imidazo[1,2-a]pyridin-7-ylmethyl)-4-[1-(1,3-thiazol-5-ylcarbonyl)azetidin-3-yl]benzamide]
IC50 [1]: 0.353 µM
IC50 [2]: 0.000648 µM
IC50 [3]: 0.0835 µM

CC[C@H](C)C(=O)N1CC[C@@H](Oc2ccc(C(=O)NCc3ccn4ccnc4c3)cc2)C1 [Example 495, N-(imidazo[1,2-a]pyridin-7-ylmethyl)-4-({(3R)-1-[(25)-2-methylbutanoyl]pyrrolidin-3-yl}oxy)benzamide]
IC50 [1]: 1.47 µM
IC50 [2]: 0.000399 µM
IC50 [3]: 0.127 µM

O=C(NCc1ccc2nccn2c1)c1cnc(N2CCc3ccccc3C2)s1 [Example 108, 2-(3,4-dihydroisoquinolin-2(1H)-yl)-N-(imidazo[1,2-a]pyridin-6-ylmethyl)-1,3-thiazole-5-carboxamide]
IC50 [1]: 1.77 µM
IC50 [2]: 0.00105 µM
IC50 [3]: 7.66 µM

O=C(NCc1ccn2ccnc2c1)Nc1ccc(C2CCN(C(=O)[C@@H]3CCOC3)CC2)cc1 [Example 287, 1-(imidazo[1,2-a]pyridin-7-ylmethyl)-3-(4-{1-[(3R)-tetrahydrofuran-3-ylcarbonyl]piperidin-4-yl}phenyl)urea]
IC50 [1]: 0.0673 µM
IC50 [2]: 0.000351 µM
IC50 [3]: 0.0241 µM

Cn1cc(C(=O)N2CCC(c3ccc(C(=O)NCc4ccn5ccnc5c4)cc3)CC2)cn1 [Example 517, N-(imidazo[1,2-a]pyridin-7-ylmethyl)-4-{1-[(1-methyl-1H-pyrazol-4-yl)carbonyl]piperidin-4-yl}benzamide]
IC50 [1]: 0.33 µM
IC50 [2]: 0.000264 µM
IC50 [3]: 0.0722 µM

O=C(NCc1ccn2ccnc2c1)c1ccc(O[C@H]2CCN(C(=O)[C@H]3CCOC3)C2)cc1 [Example 346, N-(imidazo[1,2-a]pyridin-7-ylmethyl)-4-({(3S)-1-[(3S)-tetrahydrofuran-3-ylcarbonyl]pyrrolidin-3-yl}oxy)benzamide]
IC50 [1]: 3.11 µM
IC50 [2]: 0.000548 µM
IC50 [3]: 7.02 µM

O=C(NCc1ccn2ccnc2c1)c1ccc(C2CCN(C(=O)c3ccc(OC(F)(F)F)cc3)CC2)cc1 [Example 704, N-(imidazo[1,2-a]pyridin-7-ylmethyl)-4-{1-[4-(trifluoromethoxy)benzoyl]piperidin-4-yl}benzamide]
IC50 [1]: 0.503 µM
IC50 [2]: 0.000777 µM
IC50 [3]: 0.0915 µM

CC(C)CCn1nccc1-c1ccc(C(=O)NCc2ccn3ccnc3c2)o1 [Example 821, N-(imidazo[1,2-a]pyridin-7-ylmethyl)-5-[1-(3-methylbutyl)-1H-pyrazol-5-yl]furan-2-carboxamide]
IC50 [1]: 0.663 µM
IC50 [2]: 0.000284 µM
IC50 [3]: 0.192 µM

Cn1cccc1C(=O)N1CC(c2ccc(C(=O)NCc3ccn4ccnc4c3)cc2)C1 [Example 656, N-(imidazo[1,2-a]pyridin-7-ylmethyl)-4-{1-[(1-methyl-1H-pyrrol-2-yl)carbonyl]azetidin-3-yl}benzamide]
IC50 [1]: 0.218 µM
IC50 [2]: 0.000738 µM
IC50 [3]: 0.0385 µM

O=C(CC1CCOCC1)Nc1ccc(NC(=O)NCc2ccn3ccnc3c2)cc1 [Example 284, N-(4-{[(imidazo[1,2-a]pyridin-7-ylmethyl)carbamoyl]amino}phenyl)-2-(tetrahydro-2H-pyran-4-yl)acetamide]
IC50 [1]: 0.00796 µM
IC50 [2]: 0.000169 µM
IC50 [3]: 0.107 µM
